The values that follow come from patent publication US8119614B2, “Substitution derivatives of N6-benzyladenosine, methods of their preparation, their use for preparation of drugs, cosmetic preparations and growth regulators, pharmaceutical preparations, cosmetic preparations and growth regulators containing these compounds” (Ustav Experimentalni Botaniky Akademie Ved Ceske Republiky, priority 2002, dated 2012).

For assay [1], the system named is spring wheat (variety Sandra). Description: Field studies: yield analysis of spring wheat crop. To be noted: spray of 10^−6 molar solution, Control = 100.0. In kind it is in vivo. How it is done: Crops (over the 4-year period) of spring wheat were sown in the experimental fields of Czech Agriculture University (CZU) (region of sugar beet production type) at a seeding rate of 400 germinative grains·m^−2 into ploughed and shoddy soil containing 116.1 mg/kg P, 228.3 mg/kg K, and 211.8 mg/kg Mg (agrochemical analyses were done at Department of Pedology CZU) (interval between ploughing and sowing is usually 3-4 days, longer only in case of adverse weather conditions). Preceding crop was rape. Soil preparation was done by the classical way using skid and harrow and after seeding is rolled.
(§1) Height of plants, leaf area, dry matter, development of vegetation opex—bases of future spike, and number of spikelets were monitored after germination in 14 day intervals, […]. From these primary data, values used in production physiology are derived, as leaf area index LAI, photosynthetic capacity LAD, tillering potential. Experiments with treatment of spring wheat crop (variety Sandra) are carried out on the field (area 10 m^2, four replicates) by spraying 1 litr of 10^−6 molar solution of tested compound (cytokinin) at the transition period from jointing stage to athesis stage (49 DC).
Yield analysis, evaluating spike lenght and seed number per spikelet (Σ Z/K) were carried out for 30 plant per each variant, yield from 1 m^2 and 1000 grain weight (HTS) was determined from 8 replicates, yield per ha was subsequently calculated.

The subject of a further assay is Rosa multiflora. Description: In vitro and post vitro multiplication and rooting of rose. Format: in vivo.
For a further assay, the system named is Rosa hybrida ‘Pailin’. Description: Early shoot senescence inhibition of tissue cultured roses. Format: in vivo. Conditions: 10 μM in medium. How it is done: Rosa hybrida ‘Pailin’ (a cut rose) was cultured in 350 ml vessels with a screw on polycarbonate lid. Each culture vessel contained 100 ml autoclaved medium (120° C., 20 min). The cultures were maintained at 23±2° C. under a 16 h photoperiod at […] m^−2 s^−1 PAR. The basal medium (MBR) contained Murashige and Skoog (1962) macroelements, microelements and vitamins, 36.7 mg/l NaFeEDTA, 50 mg/l NaFeEDDHA, […], 30 g/l sucrose, 100 mg/l glycine, 50 mg/l calcium pantothenate, 100 mg/l L-glutamine and 7 g/l agar-agar. This medium was supplemented with 10 μM of the tested cytokinin. New cytokinins were filter sterilised and added after autoclaving the medium in the vessels. 6-Benzylaminopurine (BAP) was used as a standard compound; the control medium didn't contain any cytokinin. After a culture period of 6 weeks, scoring senescence symptoms was started.

The next assay deals with glutamate kinase. Kind of assay: Field studies: glutamate kinase activity in spring wheat. In kind it is in vivo. To be noted: 6 days after the application, Control = 100.0. Also on record: tested at 1 µM (10^-6 M spray solution). How it is done:
as §1
Glutamate kinase activity was determined 6 days after the application. This enzyme was selected because of good corelation of its activity changes and state of transport of endogenous substances (nutrients from roots, assimilates to cariopsis), respiration, energy (adenosintriphosphate) transfer, storage of nutrients, growth and developmental proceses, and also metabolism of proline, which is known from literature to play an important role in adaptation against stress (unsuitable stand, drought, hypersalinity, coldness) and also in regulation of both theoretical and real production (restriction of seed number reduction per spikelet). Enzyme glutamate kinase catalyses to glutamate conversion into γ glutamylphosphate, which is first step of proline biosynthesis from glutamate. Therefore, this enzyme is, as essential precursor of other plant metabolic pathways, marker of stress inhibition. It can be determined spectrofotometrically (Vasáková, 1980). For analysis, acetone powder is prepared from a sample by standard method, subsequently extracted by 0.05M potassium-phosphate buffer pH=7.2 and centrifugated. Glutamate kinase fraction is precipitated using crystalline ammonium sulfate and after dialysis, glutamate kinase activity is determined spectrophotometrically. Proline accumulation increased by stress corresponds as a “feedback” to glutamate kinase inhibition.

For another assay, the system named is mouse fibroblasts NIH3T3. Description: In vitro cytotoxic activity, Calcein AM assay, NIH-3T3. Conditions: 72 hours, read-out: IC 50 NIH-3T3. Format: cell-based. The essentials:
(§2)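 Cells seeded at 10^4 per well, pre-incubated 24 h at 37 °C/5% CO2, then exposed 72 h to six 4-fold dilutions of compound (top well concentration usually 166.7 μM) in duplicate. Viability read by Calcein AM fluorescence after 1 h; GI50 taken from dose-response curves.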

Another assay relates to HOS. Kind of assay: In vitro cytotoxic activity, Calcein AM assay, HOS. Format: cell-based. Conditions: 72 hours.
Assay [2] has as its system breast carcinoma cell lines MCF-7. Kind of assay: In vitro cytotoxic activity, Calcein AM assay, MCF7. Format: cell-based, human. Conditions: 72 hours, read-out: IC 50 MCF7. The essentials: as §2
The test system of a further assay is Human lymphocytes. Kind of assay: Immunosuppressive activity: concanavalin A induced lymphocyte proliferation, [^3H]-TdR incorporation. To be noted: 72 hours, read-out: Human lymphocytes ED50. In kind it is cell-based. How it is done:
Human heparinized peripheral blood was obtained from healthy volunteers by cubital vein punction. The blood was diluted in PBS (1:3) and mononuclear cells were separated by centrifugation in Ficoll-Hypaque density gradient (Pharmacia, 1.077 g/ml) at 2200 rpm for 30 minutes. Following centrifugation, lymphocytes were washed in PBS and resuspended in cell culture medium (RMPI 1640, 2 mM glutamine, 100 U/ml penicillin, 100 μg/ml streptomycin, 10% fetal calf serum and sodium bicarbonate).
The cells were diluted at target density of 1,100,000 cells/ml were added by pipette (180 μl) into 96/well microtiter plates. Four-fold dilutions of the intended test concentration were added at time zero in 20 μl aliquots to the microtiter plate wells. Usually, test compound was evaluated at six 4-fold dilutions. In routine testing, the highest well concentration was 266.7 μM. All drug concentrations were examined in duplicates. All wells with exception of unstimulated controls were activated with 50 μl of concanavalin A (25 μg/ml). Incubations of cells with test compounds lasted for 72 hours at 37° C., in 5% CO2 atmosphere and 100% humidity. At the end of incubation period, the cells were assayed by using the [^3H]-TdR:
Cell cultures were incubated with 0.5 μCi (20 μl of stock solution 500 μCi/ml) per well for 6 hours at 37° C. and 5% CO2. The automated cell harvester was used to lyse cells in water and adsorb the DNA onto glass-fiber filters in the format of microtiter plate. The DNA incorporated [^3H]-TdR was retained on the filter while unincorporated material passes through. The filters were dried at room temperature overnight, sealed into a sample bag with 10-12 ml of scintillant. The amount of [^3H]-TdR present in each filter (in cpm) was determined by scintillation counting in a Betaplate liquid scintillation counter. The effective dose of immunosuppressant (ED) was calculated using the following equation: ED=(CCPMdrug exposed well/mean CCPMcontrol wells)×100%. The ED50 value, the drug concentration inhibiting proliferation of 50% of lymphocytes, was calculated from the obtained dose response curves.

The subject of assay [3] is human erythroleukaemia K562. Kind of assay: In vitro cytotoxic activity, Calcein AM assay, K-562. In kind it is cell-based. To be noted: 72 hours, read-out: IC 50 K-562. The essentials: as §2
Another assay concerns promyelocytic HL-60. Description: In vitro cytotoxic activity, Calcein AM assay, HL60. To be noted: 72 hours, read-out: IC 50 HL60. Format: cell-based, human. An outline of the steps: as §2
Assay [4] has as its system human malignant melanoma cells G361. Description: In vitro cytotoxic activity, Calcein AM assay, G-361. Format: cell-based. Conditions: 72 hours, read-out: IC 50 G-361. An outline of the steps: as §2
Assay [5] deals with Human T-lymphoblastic leukemia cell line CEM. Kind of assay: In vitro cytotoxic activity, Calcein AM assay, CEM. To be noted: 72 hours. Format: cell-based. The essentials:
as §2

The test system of the next assay is HL-60 cells. Kind of assay: HL-60 cell proliferation and viability (FDA/PI staining). To be noted: 50 μM Z-VAD-FMK with 20 μM 2OH3MeOBAPR, 72 h (FIG. 10). In kind it is cell-based, human. How it is done: Cell culture. A suspension of human promyelocytic HL-60 cells was cultured in RPMI-1640 medium supplemented with a 10% calf foetal serum and antibiotics in 5% CO2 atmosphere at 37° C. Cells were maintained at density from 1×10^5 to 6×10^5 cells per ml. HL-60 cells were obtained from ECACC.
Cell viability assay. Double staining with fluorescein diacetate (FDA) and propidium iodide (PI) for discrimination of dead and living cells was used. Cells were stained in growing medium with PI at a concentration 10 μg/ml 5 min later FDA was added at a concentration 1 μg/ml. The percentage of dead cells (i.e., red stained cells) was evaluated using fluorescence microscopy (Mlejnek and Kolman 1999).

The mark [6] stands for this setting: Ex vitro, after four weeks of acclimatising.

“Also recorded” adds a separate entry of the source. Peptide text beside a SMILES is read from it. * marks the point of attachment. Cbz = O=C(OCc1ccccc1)*; CH2F = FC* Where only a bound is given, the exact number is not on record here.

For the compound `c1ccc(CNc2ncnc3nc[nH]c23)cc1` [BAP, 6-benzylaminopurine, reference compound], in assay [1], the “HTS (%) (1000 grain weight)” value is listed as 102.0%, the “Yield(%)” value stood at 115.4%, the “Σ Z/K (%) (seed number per spikelet)” value amounted to 111.9% and the “Σ spike/m^2 (%)” value is given as 101.1%. The “shoot multiplication and rooting (in words)” value with Rosa multiflora (10 μM in medium) is listed as “high shoot multiplication rate, but the shoots rooted badly”. In addition, in the assay with Rosa multiflora (setting [6]), the “Root number per plant” value came to 0.6 and the “Total root length per plant (cm)” value worked out at 1.1 cm. In the assay with Rosa multiflora (In vitro, 10 μM, 8 weeks), the “Flower number per explant” value worked out at 0.00, the “Number of new shoots per explant” value is 3.8, the “Root number per explant” value came to 0.0 and the “Total root length per explant (cm)” value is reported as 0.0 cm. Also, the “senescence / dying of rose explants (in words)” value in the assay on Rosa hybrida ‘Pailin’ is on record as “the relative number of dead plants looks like a sigmoid curve; also recorded: dead Rosa explant”. Also, the “GK % (glutamate kinase activity)” value in the assay with glutamate kinase is 108.2%.
As for `OC[C@H]1O[C@@H](n2cnc3c(NCc4ccccc4O)ncnc32)[C@H](O)[C@@H]1O` [2-hydroxybenzylamino, 6-(2-hydroxybenzylamino)purine riboside], the IC50 is 43.2 µM in the assay with mouse fibroblasts NIH3T3; 2.8 µM in the assay on HOS; 11.4 µM in [2]; 88 µM in [3]; 0.42 µM in the assay on promyelocytic HL-60; above 167 µM in [4]. For the same compound, the IC50 in assay [5] was 0.7 µM. The EC50 in the assay on Human lymphocytes came out at 4.8 µM.
On to `OC[C@H]1O[C@@H](n2cnc3c(NCc4ccccc4)ncnc32)[C@H](O)[C@@H]1O` [BAPR, 6-benzylaminopurine riboside, reference compound], for which, in assay [1], the “HTS (%) (1000 grain weight)” value is 103.8%, the “Yield(%)” value was 121.9%, the “Σ Z/K (%) (seed number per spikelet)” value was 114.3% and the “Σ spike/m^2 (%)” value is 102.7%. The “GK % (glutamate kinase activity)” value with glutamate kinase worked out at 154.1%.
Regarding `OC[C@H]1O[C@@H](n2cnc3c(NCc4cccc(O)c4)ncnc32)[C@H](O)[C@@H]1O` [3-hydroxybenzylamino, 6-(3-hydroxybenzylamino)purine riboside], the IC50 is above 167 µM in the assay on mouse fibroblasts NIH3T3; above 167 µM in the assay with HOS; above 167 µM in assay [2]; above 167 µM in [3]; 23.7 µM in the assay on promyelocytic HL-60; above 167 µM in [4]. For the same compound, the IC50 in assay [5] was 51.9 µM. The EC50 with Human lymphocytes turned out to be 10.7 µM.
In the case of `Oc1cccc(CNc2ncnc3nc[nH]c23)c1` [mT, 6-(3-hydroxybenzylamino)purine], the “senescence / dying of rose explants (in words)” value with Rosa hybrida ‘Pailin’ is on record as “the situation improved”.
Consider `COC(=O)C[C@H](NC(=O)[C@H](C)NC(=O)[C@@H](NC(=O)OCc1ccccc1)C(C)C)C(=O)CF` [Z-VAD-FMK, reference compound] (Cbz-Val-Ala-Asp(OMe)-CH2F), for which the “effect of caspase inhibitor on 2OH3MeOBAPR induced apoptosis and cell death” value in the assay on HL-60 cells was “suppress morphological and biochemical characteristics of apoptosis, however it does not inhibit cell death itself”.
